{"source": "paper PMC10937574", "about": "“Modification of 4-(4-chlorothiophen-2-yl)thiazol-2-amine derivatives for the treatment of analgesia and inflammation: synthesis and in vitro, in vivo, and in silico studies” (Frontiers in Pharmacology, 2024)", "key": {"5-LOX enzyme": {"biological_target": "5-LOX enzyme", "test": "5-LOX activity (5-lipoxygenase inhibition, linoleic acid substrate, absorbance 234 nm)", "settings": "read-out: IC50 ± SEM 5-LOX"}, "[1]": {"test_system": "carrageenan-induced paw edema", "test": "Carrageenan-induced paw edema", "format": "in vivo, albino mice"}, "[2]": {"test_system": "histamine-induced paw edema", "test": "Histamine-induced paw edema", "format": "in vivo, mouse", "settings": "20 mg/kg, at 3 h"}, "[3]": {"test_system": "bradykinin-induced paw edema", "test": "Bradykinin-induced paw edema", "format": "in vivo, mouse", "settings": "20 mg/kg, first hour", "protocol": "(§1) It was done by injecting 10% DMSO, a Bradykinin inhibitor (HOE 140) at a dose of 1 mg/kg, a lipoxygenase inhibitor (montelukast) at a dose of 25 mg/kg, an antihistamine at a dose of 100 mg/kg, […], or a cyclooxygenase inhibitor (celecoxib) at a dose of 50 mg/kg."}, "[4]": {"test_system": "prostaglandin E2-induced paw edema", "test": "Prostaglandin E2-induced paw edema", "format": "in vivo, mouse", "protocol": "It was done by injecting 10% DMSO, a Bradykinin inhibitor (HOE 140) at a dose of 1 mg/kg, a lipoxygenase inhibitor (montelukast) at a dose of 25 mg/kg, an antihistamine at a dose of 100 mg/kg, the tested compound at a dose of 100 mg/kg, or a cyclooxygenase inhibitor (celecoxib) at a dose of 50 mg/kg."}, "[5]": {"test_system": "leukotriene-induced paw edema", "test": "Leukotriene-induced paw edema", "format": "in vivo, mouse", "settings": "for percentage inhibition of leukotriene-induced paw edema: 20 mg/kg", "protocol": "as §1"}}, "note": "“And” between values parts separate entries of the source, which are not always exact repeats. Identical values can stand only once. Like-named read-outs stand apart in the source and are kept apart here."}
{"smiles": "CCNc1nc(-c2cc(Cl)cs2)c(N2CCN(C)CC2)s1", "note": "[Compound 5c]", "values": [{"measurement": "IC50", "setting": "5-LOX enzyme", "value": "72.32 ± 0.11", "unit": "µM"}]}
{"smiles": "CCNc1nc(-c2cc(Cl)cs2)c(N2CCNCC2)s1", "note": "[Compound 5b]", "values": [{"measurement": "IC50", "setting": "5-LOX enzyme", "value": "98.26 ± 0.08", "unit": "µM"}]}
{"smiles": "CCNc1nc(-c2cc(Cl)cs2)c(Nc2ccccc2)s1", "note": "[Compound 5f]", "values": [{"measurement": "IC50", "setting": "5-LOX enzyme", "value": "56.21 ± 0.15", "unit": "µM"}]}
{"smiles": "CC(=O)Oc1ccccc1C(=O)O", "note": "[Aspirin, reference compound]", "values": [{"measurement": "Percent inhibition of paw edema", "setting": "[1]; dose 50 mg/kg, 1 h", "value": "48.52 ± 1.12", "unit": "%"}, {"measurement": "Percent inhibition of paw edema", "setting": "[1]; dose 50 mg/kg, 2 h", "value": "54.63 ± 1.47", "unit": "%"}, {"measurement": "Percent inhibition of paw edema", "setting": "[1]; dose 50 mg/kg, 3 h", "value": "55.22 ± 1.38", "unit": "%"}, {"measurement": "Percent inhibition of paw edema", "setting": "[1]; dose 50 mg/kg, 4 h", "value": "58.92 ± 1.95", "unit": "%"}, {"measurement": "Percent inhibition of paw edema", "setting": "[1]; dose 50 mg/kg, 5 h", "value": "59.60 ± 1.52", "unit": "%"}, {"measurement": "Percent inhibition of paw edema", "setting": "[1]; dose 50 mg/kg, 5 h, listed as aspirin", "value": 59.60, "unit": "%"}]}
{"smiles": "Nc1nc(-c2cc(Cl)cs2)c(N2CCNCC2)s1", "note": "[Compound 5a]", "values": [{"measurement": "IC50", "setting": "5-LOX enzyme", "value": "93.15 ± 0.07", "unit": "µM"}]}
{"smiles": "CN1CCN(c2sc(NCc3ccccc3)nc2-c2cc(Cl)cs2)CC1", "note": "[Compound 5d]", "values": [{"measurement": "Percent inhibition of paw edema", "setting": "[1]; dose 5 mg/kg, 1 h", "value": "45.47 ± 1.11", "unit": "%"}, {"measurement": "Percent inhibition of paw edema", "setting": "[1]; dose 5 mg/kg, 2 h", "value": "48.10 ± 1.42", "unit": "%"}, {"measurement": "Percent inhibition of paw edema", "setting": "[1]; dose 10 mg/kg, 1 h", "value": "49.68 ± 1.44", "unit": "%"}, {"measurement": "Percent inhibition of paw edema", "setting": "[1]; dose 20 mg/kg, 5 h", "value": "61.64 ± 1.10", "unit": "%"}, {"measurement": "antihistaminic effect (suppression of histamine-induced paw edema)", "setting": "[2]", "value": 27.12, "unit": "%"}, {"measurement": "inhibition of bradykinin-induced paw swelling", "setting": "[3]", "value": 9.20, "unit": "%"}, {"measurement": "inhibition of prostaglandin E2-induced paw edema", "setting": "[4]; 20 mg/kg, fourth hour", "value": "76.56 ± 0.58"}, {"measurement": "percentage inhibition of leukotriene-induced paw edema", "setting": "[5]; fifth hour (fifth of five values)", "value": "59.90 ± 0.68", "unit": "%"}, {"measurement": "percentage inhibition of leukotriene-induced paw edema", "setting": "[5]; first hour (first of five values)", "value": "51.80 ± 0.58", "unit": "%"}, {"measurement": "percentage inhibition of leukotriene-induced paw edema", "setting": "[5]; fourth hour", "value": "64.56 ± 0.78", "unit": "%"}, {"measurement": "percentage inhibition of leukotriene-induced paw edema", "setting": "[5]; second hour (second of five values)", "value": "55.90 ± 0.66", "unit": "%"}, {"measurement": "percentage inhibition of leukotriene-induced paw edema", "setting": "[5]; third hour (third of five values)", "value": "59.46 ± 0.52", "unit": "%"}, {"measurement": "IC50", "setting": "5-LOX enzyme", "value": "23.08 ± 0.18", "unit": "µM"}]}
{"smiles": "Clc1csc(-c2nc(NCc3ccccc3)sc2Nc2ccccc2)c1", "note": "[Compound 5e]", "values": [{"measurement": "Percent inhibition of paw edema", "setting": "[1]; dose 5 mg/kg, 1 h", "value": "47.70 ± 1.68", "unit": "%"}, {"measurement": "Percent inhibition of paw edema", "setting": "[1]; dose 5 mg/kg, 2 h", "value": "51.47 ± 1.50", "unit": "%"}, {"measurement": "Percent inhibition of paw edema", "setting": "[1]; dose 5 mg/kg, 3 h", "value": "54.56 ± 1.34", "unit": "%"}, {"measurement": "Percent inhibition of paw edema", "setting": "[1]; dose 5 mg/kg, 4 h", "value": "53.35 ± 1.47", "unit": "%"}, {"measurement": "Percent inhibition of paw edema", "setting": "[1]; dose 5 mg/kg, 5 h", "value": "56.25 ± 1.65", "unit": "%"}, {"measurement": "Percent inhibition of paw edema", "setting": "[1]; dose 10 mg/kg, 1 h", "value": "52.36 ± 2.26", "unit": "%"}, {"measurement": "Percent inhibition of paw edema", "setting": "[1]; dose 10 mg/kg, 2 h", "value": "54.58 ± 2.58", "unit": "%"}, {"measurement": "Percent inhibition of paw edema", "setting": "[1]; dose 10 mg/kg, 3 h", "value": "57.59 ± 1.59", "unit": "%"}, {"measurement": "Percent inhibition of paw edema", "setting": "[1]; dose 10 mg/kg, 4 h", "value": "56.78 ± 2.66", "unit": "%"}, {"measurement": "Percent inhibition of paw edema", "setting": "[1]; dose 10 mg/kg, 5 h", "value": "62.65 ± 2.79", "unit": "%"}, {"measurement": "Percent inhibition of paw edema", "setting": "[1]; dose 20 mg/kg, 1 h", "value": "55.29% and 55.29 ± 1.04 %"}, {"measurement": "Percent inhibition of paw edema", "setting": "[1]; dose 20 mg/kg, 2 h", "value": "57.39 ± 1.69", "unit": "%"}, {"measurement": "Percent inhibition of paw edema", "setting": "[1]; dose 20 mg/kg, 3 h", "value": "60.76 ± 2.68", "unit": "%"}, {"measurement": "Percent inhibition of paw edema", "setting": "[1]; dose 20 mg/kg, 4 h", "value": "59.08 ± 1.98", "unit": "%"}, {"measurement": "Percent inhibition of paw edema", "setting": "[1]; dose 20 mg/kg, 5 h", "value": "64.59% and 64.59 ± 1.49 %"}, {"measurement": "antihistaminic effect (suppression of histamine-induced paw edema)", "setting": "[2]", "value": 35, "unit": "%"}, {"measurement": "inhibition of bradykinin-induced paw swelling", "setting": "[3]", "value": 21.30, "unit": "%"}, {"measurement": "percentage inhibition of leukotriene-induced paw edema", "setting": "[5]; fourth hour", "value": 69.84, "unit": "%"}, {"measurement": "IC50", "setting": "5-LOX enzyme; listed as C00005", "value": "38.45 ± 0.2", "unit": "µM"}]}
{"smiles": "C#CCNc1nc(-c2cc(Cl)cs2)c(Nc2ccccc2)s1", "note": "[Compound 5g]", "values": [{"measurement": "IC50", "setting": "5-LOX enzyme", "value": "83.11 ± 0.16", "unit": "µM"}]}
{"smiles": "CC(C)(O)c1ccccc1CC[C@@H](SCC1(CC(=O)O)CC1)c1cccc(/C=C/c2ccc3ccc(Cl)cc3n2)c1", "note": "[montelukast, reference compound]", "values": [{"measurement": "percentage reduction of leukotriene-induced paw edema", "setting": "[5]; montelukast 25 mg/kg, fourth hour", "value": "72.79 ± 1.10", "unit": "%"}]}
{"smiles": "Cc1ccc(-c2cc(C(F)(F)F)nn2-c2ccc(S(N)(=O)=O)cc2)cc1", "note": "[Celecoxib, reference compound]", "values": [{"measurement": "reduction of prostaglandin E2-induced paw edema", "setting": "[4]; celecoxib 50 mg/kg, 4th hour after inflammogen", "value": 88, "unit": "%"}]}
